≈ marks a conversion by molar mass, not a printed value.
Tests used:
Assay type in all cases: functional
[1] = test system: Pseudomonas aeruginosa; assay: Relative potency was calculated against Pseudomonas aeruginosa (5 ) by dividing the species index of Imipenem by the species index of the test compound
[2] = molecular target: T1, Dipeptidase 1 (Sus scrofa) (UniProt P22412); assay: DHP-I susceptibility relative to imipenem
T1 sequence (whole entry): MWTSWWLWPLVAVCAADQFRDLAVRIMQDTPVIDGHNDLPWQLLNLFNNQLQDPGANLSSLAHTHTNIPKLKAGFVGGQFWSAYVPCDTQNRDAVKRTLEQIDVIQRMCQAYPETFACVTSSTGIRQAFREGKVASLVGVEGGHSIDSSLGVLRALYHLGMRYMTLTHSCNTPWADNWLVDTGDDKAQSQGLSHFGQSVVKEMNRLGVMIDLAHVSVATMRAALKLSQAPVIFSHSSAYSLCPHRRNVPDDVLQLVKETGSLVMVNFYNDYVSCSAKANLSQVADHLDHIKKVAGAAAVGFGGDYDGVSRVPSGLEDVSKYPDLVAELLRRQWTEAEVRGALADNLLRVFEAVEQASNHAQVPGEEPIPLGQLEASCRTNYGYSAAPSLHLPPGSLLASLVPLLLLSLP

[3] = test system: Escherichia coli; assay: Relative potency was calculated against Escherichia coli (5) by dividing the species index of Imipenem by the species index of the test compound
[4] = test system: Klebsiella sp.; assay: Relative potency was calculated against Klebsiella species. (5) by dividing the species index of Imipenem by the species index of the test compound
[5] = test system: Enterobacter sp.; assay: Relative potency was calculated against Enterobacter species. (6) by dividing the species index of Imipenem by the species index of the test compound
[6] = test system: Serratia; assay: Relative potency was calculated against Serratia species. (2) by dividing the species index of Imipenem by the species index of the test compound
[7] = test system: Enterococcus sp.; assay: Relative potency was calculated against Enterococcus species. (3) by dividing the species index of Imipenem by the species index of the test compound
[8] = test system: Staphylococcus aureus; assay: Relative potency was calculated against Methicillin-sensitive Staphylococcus aureus (4) by dividing the species index of Imipenem by the species index of the test compound
[9] = test system: Staphylococcus aureus; assay: Relative potency was calculated against Methicillin-resistant Staphylococcus aureus (1) by dividing the species index of Imipenem by the species index of the test compound
[10] = test system: Proteus; assay: Relative potency was calculated against Proteus species. (5) by dividing the species index of Imipenem by the species index of the test compound
[11] = test system: Staphylococcus sp.; assay: Compound was evaluated for anti-methicillin-resistant activity against methicillin-resistant coagulase-negative Staphylococci CL 227
[12] = test system: Staphylococcus aureus; assay: Compound was evaluated for anti-methicillin-resistant activity against methicillin-resistant Staphylococcus aureus
[13] = test system: Staphylococcus sp.; assay: Compound was evaluated for anti-methicillin-resistant activity against methicillin-resistant coagulase-negative Staphylococci CL 202
[14] = test system: Staphylococcus sp.; assay: Compound was evaluated for anti-methicillin-resistant activity against methicillin-resistant coagulase-negative Staphylococci
[15] = test system: Staphylococcus sp.; assay: Compound was evaluated for anti-methicillin-resistant activity against methicillin-resistant coagulase-negative Staphylococci CL 171
[16] = test system: Staphylococcus sp.; assay: Compound was evaluated for anti-methicillin-resistant activity against methicillin-resistant coagulase-negative Staphylococci CL 546
[17] = test system: Staphylococcus aureus; assay: Compound was evaluated for anti-methicillin-resistant activity against methicillin-resistant Staphylococcus aureus CL 1395
[18] = test system: Pseudomonas aeruginosa; assay: Antibacterial activity against Pseudomonas aeruginosa (5 )
[19] = test system: Escherichia coli; assay: Antibacterial activity against Escherichia coli (5)
[20] = test system: Staphylococcus aureus; assay: Compound was evaluated for anti-methicillin-resistant activity against methicillin-resistant Staphylococcus aureus CL 714
[21] = test system: Staphylococcus aureus; assay: Compound was evaluated for anti-methicillin-resistant activity against methicillin-resistant Staphylococcus aureus CL 3031
[22] = test system: Staphylococcus aureus; assay: Compound was evaluated for anti-methicillin-resistant activity against methicillin-resistant Staphylococcus aureus CL 1989
[23] = test system: Enterococcus sp.; assay: Antibacterial activity against Enterococcus species. (3)
[24] = test system: Staphylococcus aureus; assay: Antibacterial activity against Methicillin-sensitive Staphylococcus aureus (4)
[25] = test system: Staphylococcus aureus; assay: Compound was evaluated for anti-methicillin-resistant activity against methicillin-resistant Staphylococcus aureus CL 3025
[26] = test system: Klebsiella sp.; assay: Antibacterial activity against Klebsiella species. (5)
[27] = test system: Staphylococcus aureus; assay: Compound was evaluated for anti-methicillin-resistant activity against methicillin-resistant Staphylococcus aureus CL 1990
[28] = test system: Enterobacter sp.; assay: Antibacterial activity against Enterobacter species. (6)
[29] = test system: Staphylococcus aureus; assay: Compound was evaluated for anti-methicillin-resistant activity against methicillin-resistant Staphylococcus aureus CL 1991
[30] = test system: Serratia; assay: Antibacterial activity against Serratia species. (2)
[31] = test system: Staphylococcus aureus; assay: Antibacterial activity against Methicillin-resistant Staphylococcus aureus (1)
[32] = test system: Staphylococcus aureus; assay: Compound was evaluated for anti-methicillin-resistant activity against methicillin-resistant Staphylococcus aureus CL 792
[33] = test system: Staphylococcus aureus; assay: Compound was evaluated for anti-methicillin-resistant activity against methicillin-resistant Staphylococcus aureus CL 3033
[34] = test system: Proteus; assay: Antibacterial activity against Proteus species. (5)
[35] = test system: Staphylococcus aureus; assay: Compound was evaluated for anti-methicillin-resistant activity against methicillin-resistant Staphylococcus aureus CL 3043
[36] = test system: Staphylococcus aureus; assay: Compound was evaluated for anti-methicillin-resistant activity against methicillin-resistant Staphylococcus aureus CL 1983
[37] = test system: Staphylococcus aureus; assay: Compound was evaluated for anti-methicillin-resistant activity against methicillin-resistant Staphylococcus aureus CL 1985

SMILES: C[C@@H](O)[C@H]1C(=O)N2C(C(=O)[O-])=C(c3ccc(-c4ccc(C[n+]5ccc(N(C)C)cc5)cc4)cc3)C[C@H]12
- Relative potency [1]: 0.013
- Susceptibility [2]: 0.46
- Relative potency [3]: 0.31
- Relative potency [4]: 0.04
- Relative potency [5]: 0.12
- Relative potency [6]: 0.26
- Relative potency [7]: 2
- Relative potency [8]: 0.16
- Relative potency [9]: 3.9
- Relative potency [10]: 0.44

SMILES: CN[C@H](CC(C)C)C(=O)N[C@H]1C(=O)N[C@@H](CC(N)=O)C(=O)N[C@H]2C(=O)N[C@H]3C(=O)N[C@H](C(=O)N[C@H](C(=O)O)c4cc(O)cc(O)c4-c4cc3ccc4O)[C@H](O)c3ccc(c(Cl)c3)Oc3cc2cc(c3O[C@@H]2O[C@H](CO)[C@@H](O)[C@H](O)[C@H]2O[C@H]2C[C@](C)(N)[C@H](O)[C@H](C)O2)Oc2ccc(cc2Cl)[C@H]1O [VANCOMYCIN]
- MIC [11]: 2 µg/mL (≈ 1.38 µM)
- MIC50 [12]: 1 µg/mL (≈ 0.69 µM)
- MIC90 [12]: 2 µg/mL (≈ 1.38 µM)
- MIC [13]: 8 µg/mL (≈ 5.52 µM)
- MIC50 [14]: 4 µg/mL (≈ 2.76 µM)
- MIC90 [14]: 8 µg/mL (≈ 5.52 µM)
- MIC [15]: 8 µg/mL (≈ 5.52 µM)
- MIC [16]: 4 µg/mL (≈ 2.76 µM)

SMILES: C[C@@H](O)[C@H]1C(=O)N2C(C(=O)[O-])=C(c3cccc(C[n+]4ccccc4N)c3)C[C@H]12
- Relative potency [1]: 0.02
- Susceptibility [2]: 0.11
- Relative potency [3]: 1.7
- Relative potency [4]: 1.1
- Relative potency [5]: 3
- Relative potency [6]: 4.4
- Relative potency [7]: 12.9
- Relative potency [8]: 0.5
- Relative potency [9]: 2
- Relative potency [10]: 4.2

SMILES: C[C@@H](O)[C@H]1C(=O)N2C(C(=O)O)=C(SCCNC=N)C[C@H]12 [IMIPENEM ANHYDROUS]
- MIC [11]: 64 µg/mL (≈ 214 µM)
- MIC [17]: 64 µg/mL (≈ 214 µM)
- MIC [18]: 0.36 µg/mL (≈ 1.2 µM)
- MIC [19]: 0.19 µg/mL (≈ 0.635 µM)
- Susceptibility [2]: 1
- MIC [20]: 32 µg/mL (≈ 107 µM)
- MIC [21]: 32 µg/mL (≈ 107 µM)
- MIC50 [12]: 4 µg/mL (≈ 13.4 µM)
- MIC90 [12]: 64 µg/mL (≈ 214 µM)
- MIC [22]: 2 µg/mL (≈ 6.68 µM)
- MIC [13]: > 128 µg/mL
- MIC [23]: 1.8 µg/mL (≈ 6.01 µM)
- MIC [24]: 0.01 µg/mL (≈ 0.0334 µM)
- MIC [25]: 2 µg/mL (≈ 6.68 µM)
- MIC50 [14]: 64 µg/mL (≈ 214 µM)
- MIC90 [14]: > 128 µg/mL
- MIC [15]: > 128 µg/mL
- MIC [26]: 0.29 µg/mL (≈ 0.969 µM)
- MIC [27]: 4 µg/mL (≈ 13.4 µM)
- MIC [28]: 0.18 µg/mL (≈ 0.601 µM)
- MIC [29]: 1 µg/mL (≈ 3.34 µM)
- MIC [30]: 0.29 µg/mL (≈ 0.969 µM)
- MIC [16]: 64 µg/mL (≈ 214 µM)
- MIC [31]: 33 µg/mL (≈ 110 µM)
- MIC [32]: 32 µg/mL (≈ 107 µM)
- MIC [33]: 128 µg/mL (≈ 428 µM)
- MIC [34]: 0.78 µg/mL (≈ 2.61 µM)
- MIC [35]: 16 µg/mL (≈ 53.4 µM)
- MIC [36]: 1 µg/mL (≈ 3.34 µM)
- MIC [37]: 1 µg/mL (≈ 3.34 µM)

SMILES: COc1cccc(OC)c1C(=O)N[C@@H]1C(=O)N2[C@@H]1SC(C)(C)[C@@H]2C(=O)[O-].[Na+]
- MIC [11]: 512 µg/mL
- MIC [17]: 512 µg/mL
- MIC [20]: 512 µg/mL
- MIC [21]: 256 µg/mL
- MIC50 [12]: 128 µg/mL
- MIC90 [12]: 512 µg/mL
- MIC [22]: 64 µg/mL
- MIC [13]: > 512 µg/mL
- MIC [25]: 64 µg/mL
- MIC50 [14]: > 512 µg/mL
- MIC90 [14]: > 512 µg/mL
- MIC [15]: > 512 µg/mL
- MIC [27]: 128 µg/mL
- MIC [29]: 64 µg/mL
- MIC [16]: > 512 µg/mL
- MIC [32]: 512 µg/mL
- MIC [33]: > 512 µg/mL
- MIC [35]: 128 µg/mL
- MIC [36]: 64 µg/mL
- MIC [37]: 64 µg/mL

SMILES: C[C@@H](O)[C@H]1C(=O)N2C(C(=O)[O-])=C(c3cccc(-c4ccc(C[n+]5ccccc5N)cc4)c3)C[C@H]12
- MIC [11]: 2 µg/mL (≈ 4.39 µM)
- MIC [17]: 2 µg/mL (≈ 4.39 µM)
- Relative potency [1]: 0.01
- Susceptibility [2]: 0.04
- MIC [20]: 2 µg/mL (≈ 4.39 µM)
- Relative potency [3]: 0.11
- MIC [21]: 2 µg/mL (≈ 4.39 µM)
- MIC50 [12]: 1 µg/mL (≈ 2.2 µM)
- MIC90 [12]: 2 µg/mL (≈ 4.39 µM)
- MIC [22]: 0.5 µg/mL (≈ 1.1 µM)
- MIC [13]: 2 µg/mL (≈ 4.39 µM)
- Relative potency [4]: 0.04
- MIC [25]: 1 µg/mL (≈ 2.2 µM)
- Relative potency [5]: 0.04
- Relative potency [6]: 0.11
- MIC50 [14]: 2 µg/mL (≈ 4.39 µM)
- MIC90 [14]: 4 µg/mL (≈ 8.78 µM)
- MIC [15]: 4 µg/mL (≈ 8.78 µM)
- MIC [27]: 1 µg/mL (≈ 2.2 µM)
- MIC [29]: 1 µg/mL (≈ 2.2 µM)
- Relative potency [7]: 6.2
- Relative potency [8]: 0.43
- Relative potency [9]: 154
- MIC [16]: 2 µg/mL (≈ 4.39 µM)
- MIC [32]: 1 µg/mL (≈ 2.2 µM)
- Relative potency [10]: 0.38
- MIC [33]: 2 µg/mL (≈ 4.39 µM)
- MIC [35]: 1 µg/mL (≈ 2.2 µM)
- MIC [36]: 0.5 µg/mL (≈ 1.1 µM)
- MIC [37]: 1 µg/mL (≈ 2.2 µM)
